Data reported in PubChem BioAssay AID1963422 (Molecular Pharmacology Branch, DTP, NCI, 2024).
“And” between values parts separate entries of the source, which are not always exact repeats. Equal entries are not always repeated.

Tested on: 463943-066-T-J2-PDC complex spheroid growth
Assay: Anticancer human tumor 463943-066-T-J2-PDC patient-derived colon adenocarcinoma cell line growth inhibition [Asc]
Conditions: for viability, T/C: stronger effect = lower value
Summary of the method: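 Tumor cells were grown as complex spheroids with human endothelial cells (HUVEC) and human mesenchymal stem cells as stroma. Agents were tested alone and in combination, in half-log steps down from the clinical Cmax, or from 10 microM where Cmax was unknown.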
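Further: compound exposure lasted 7 days.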
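Wherever viability, T/C is given: 100% = DMSO vehicle control wells.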

SMILES: CCN1CCN(Cc2ccc(Nc3ncc(F)c(-c4cc(F)c5nc(C)n(C(C)C)c5c4)n3)nc2)CC1 + CNC(C)C(=O)NC1CN(S(=O)(=O)c2cccc(S(=O)(=O)N3CCC4CCC(C(=O)NC(c5ccccc5)c5ccccc5)N4C(=O)C(NC(=O)C(C)NC)C3)c2)CCC2CCC(C(=O)NC(c3ccccc3)c3ccccc3)N2C1=O
- IC50 (curve of first compound, second compound 0.00316 µM): > 1 µM
- IC50 (curve of first compound, second compound 0.01 µM): > 1 µM
- IC50 (curve of first compound, second compound 0.0316 µM): > 1 µM
- IC50 (curve of first compound, second compound 0.1 µM): > 1 µM
- IC50 (curve of first compound, second compound 0.316 µM): > 1 µM
- IC50 (curve of first compound, second compound 1 µM): > 1 µM
- viability, T/C (second compound 0.00316 µM, first compound 0.00316 µM): 87.7%
- viability, T/C (second compound 0.00316 µM, first compound 0.01 µM): 92.7%
- viability, T/C (second compound 0.00316 µM, first compound 0.0316 µM): 88%
- viability, T/C (second compound 0.00316 µM, first compound 0.1 µM): 93.6%
- viability, T/C (second compound 0.00316 µM, first compound 0.316 µM): 109%
- viability, T/C (second compound 0.00316 µM, first compound 1 µM): 120%
- viability, T/C (second compound 0.01 µM, first compound 0.00316 µM): 99.2%
- viability, T/C (second compound 0.01 µM, first compound 0.01 µM): 102%
- viability, T/C (second compound 0.01 µM, first compound 0.0316 µM): 99.8%
- viability, T/C (second compound 0.01 µM, first compound 0.1 µM): 92.2%
- viability, T/C (second compound 0.01 µM, first compound 0.316 µM): 123%
- viability, T/C (second compound 0.01 µM, first compound 1 µM): 121%
- viability, T/C (second compound 0.0316 µM, first compound 0.00316 µM): 103%
- viability, T/C (second compound 0.0316 µM, first compound 0.01 µM): 108%
- viability, T/C (second compound 0.0316 µM, first compound 0.0316 µM): 94.9%
- viability, T/C (second compound 0.0316 µM, first compound 0.1 µM): 101%
- viability, T/C (second compound 0.0316 µM, first compound 0.316 µM): 116%
- viability, T/C (second compound 0.0316 µM, first compound 1 µM): 128%
- viability, T/C (second compound 0.1 µM, first compound 0.00316 µM): 89%
- viability, T/C (second compound 0.1 µM, first compound 0.01 µM): 92.3%
- viability, T/C (second compound 0.1 µM, first compound 0.0316 µM): 89.6%
- viability, T/C (second compound 0.1 µM, first compound 0.1 µM): 95.5%
- viability, T/C (second compound 0.1 µM, first compound 0.316 µM): 113%
- viability, T/C (second compound 0.1 µM, first compound 1 µM): 110%
- viability, T/C (second compound 0.316 µM, first compound 0.00316 µM): 92.3%
- viability, T/C (second compound 0.316 µM, first compound 0.01 µM): 103%
- viability, T/C (second compound 0.316 µM, first compound 0.0316 µM): 99.7%
- viability, T/C (second compound 0.316 µM, first compound 0.1 µM): 89.6%
- viability, T/C (second compound 0.316 µM, first compound 0.316 µM): 109%
- viability, T/C (second compound 0.316 µM, first compound 1 µM): 118%
- viability, T/C (second compound 1 µM, first compound 0.00316 µM): 88.8%
- viability, T/C (second compound 1 µM, first compound 0.01 µM): 92.5%
- viability, T/C (second compound 1 µM, first compound 0.0316 µM): 84%
- viability, T/C (second compound 1 µM, first compound 0.1 µM): 94%
- viability, T/C (second compound 1 µM, first compound 0.316 µM): 120%
- viability, T/C (second compound 1 µM, first compound 1 µM): 117%

SMILES: O=C(c1ccc(F)c(F)c1Nc1ccc(I)cc1F)N1CC(O)([C@@H]2CCCCN2)C1 + CCN1C(C(=O)NC23CCC(C(=O)O)(CC2)CC3)C(c2cccc(Cl)c2F)C2(C(=O)Nc3cc(Cl)ccc32)C12CCCCC2
- IC50 (curve of first compound, second compound 0.00949 µM): 0.188 µM
- IC50 (curve of first compound, second compound 0.03 µM): 0.133 µM
- IC50 (curve of first compound, second compound 0.0949 µM): 0.117 µM
- IC50 (curve of first compound, second compound 0.3 µM): 0.0706 µM
- IC50 (curve of first compound, second compound 0.949 µM): 0.0349 µM
- IC50 (curve of first compound, second compound 3 µM): 0.0177 µM
- viability, T/C (second compound 0.00949 µM, first compound 0.00316 µM): 86.3%
- viability, T/C (second compound 0.00949 µM, first compound 0.01 µM): 78.7%
- viability, T/C (second compound 0.00949 µM, first compound 0.0316 µM): 74.2%
- viability, T/C (second compound 0.00949 µM, first compound 0.1 µM): 63.5%
- viability, T/C (second compound 0.00949 µM, first compound 0.316 µM): 39.1%
- viability, T/C (second compound 0.00949 µM, first compound 1 µM): 27.9%
- viability, T/C (second compound 0.03 µM, first compound 0.00316 µM): 93.5%
- viability, T/C (second compound 0.03 µM, first compound 0.01 µM): 77.5%
- viability, T/C (second compound 0.03 µM, first compound 0.0316 µM): 63.7%
- viability, T/C (second compound 0.03 µM, first compound 0.1 µM): 56.2%
- viability, T/C (second compound 0.03 µM, first compound 0.316 µM): 40%
- viability, T/C (second compound 0.03 µM, first compound 1 µM): 29%
- viability, T/C (second compound 0.0949 µM, first compound 0.00316 µM): 84.5%
- viability, T/C (second compound 0.0949 µM, first compound 0.01 µM): 74.7%
- viability, T/C (second compound 0.0949 µM, first compound 0.0316 µM): 65.7%
- viability, T/C (second compound 0.0949 µM, first compound 0.1 µM): 50.8%
- viability, T/C (second compound 0.0949 µM, first compound 0.316 µM): 39.4%
- viability, T/C (second compound 0.0949 µM, first compound 1 µM): 28.2%
- viability, T/C (second compound 0.3 µM, first compound 0.00316 µM): 79.5%
- viability, T/C (second compound 0.3 µM, first compound 0.01 µM): 65.2%
- viability, T/C (second compound 0.3 µM, first compound 0.0316 µM): 54.9%
- viability, T/C (second compound 0.3 µM, first compound 0.1 µM): 50.5%
- viability, T/C (second compound 0.3 µM, first compound 0.316 µM): 37.8%
- viability, T/C (second compound 0.3 µM, first compound 1 µM): 29.6%
- viability, T/C (second compound 0.949 µM, first compound 0.00316 µM): 67.8%
- viability, T/C (second compound 0.949 µM, first compound 0.01 µM): 60%
- viability, T/C (second compound 0.949 µM, first compound 0.0316 µM): 48.3%
- viability, T/C (second compound 0.949 µM, first compound 0.1 µM): 44.1%
- viability, T/C (second compound 0.949 µM, first compound 0.316 µM): 39.5%
- viability, T/C (second compound 0.949 µM, first compound 1 µM): 32.4%
- viability, T/C (second compound 3 µM, first compound 0.00316 µM): 65%
- viability, T/C (second compound 3 µM, first compound 0.01 µM): 55.7%
- viability, T/C (second compound 3 µM, first compound 0.0316 µM): 44.2%
- viability, T/C (second compound 3 µM, first compound 0.1 µM): 40.4%
- viability, T/C (second compound 3 µM, first compound 0.316 µM): 36.6%
- viability, T/C (second compound 3 µM, first compound 1 µM): 33.8%

SMILES: C=C(F)C(=O)N1CCN(c2nc(OCC3CCCN3C)nc3c2CCN(c2cccc4cccc(Cl)c24)C3)CC1CC#N (stereo unspecified)
- viability, T/C (compound 0.0316 µM): 98.4% and 102%
- viability, T/C (compound 0.1 µM): 102% and 94.9%
- viability, T/C (compound 0.316 µM): 102%
- viability, T/C (compound 1 µM): 109% and 106%
- viability, T/C (compound 3.16 µM): 95.6%
- viability, T/C (compound 10 µM): 18.6% and 29.3%
- IC50 (curve of compound): 6.27 µM and 7 µM
